Measurements from US11541029B2, “High penetration compositions and their applications” (Techfields Pharma Co., Ltd., priority 2008, dated 2023).

Experiments:
[1] = Amount of salicylic acid in rat brain tissue (blood-brain barrier), 0.5 mmol/kg; assay type: in vivo, rats
Protocol: 30, 60, 120, 240, 480 minutes after the test compound was administrated, rats were decapitated and were perfused with normal Krebs-Henseleit buffer (with Heparin Sodium, pH7.4) (10 mL/min) to remove blood. […] The mixture was centrifuged for 5 minutes at 16,000 rpm. The supernatant (2 ml) was collected and evaporated to dryness.

[2] = test system: type 2 diabetes rat models [SLAC/GK(Goto and Kakisaki)]; assay: Hypoglycemic effects of aspirin and its HPC in GK rats, once per day for 6 weeks; assay type: in vivo; conditions: for Blood Glucose Levels at day 1 / Blood Glucose Levels at day 42: no fasting, n = 5;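 as to Blood Glucose Levels at day 42: blood glucose in mg/dL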
Protocol: The blood glucose levels were measured three times every week (no fasting) from the third week to the sixth week.

SLAC/MRL/LPR mice = assay: Lupus in MRL/LPR mice treated from 16 weeks old, 30 mg/kg (10% aq.) on back skin twice per day; assay type: in vivo
Protocol: . Progression of lupus was monitored once a week by measurement of hematuria, body weight and survival rate. The experiments were carried out in two groups of mice. One group of mice were 8 weeks old and had not shown SLE characteristics (Table 26a). The other group of mice were 16 weeks old, and had shown SLE characteristics (Table 26b).

CCN(CC)CCOC(=O)c1ccccc1OC(C)=O.Cl [P-1, diethylaminoethyl acetylsalicylate.HCl salt]
salicylic acid in brain tissue ([1]; intramuscularly, 30 min): 6.5 ± 2.2 nmol/g | salicylic acid in brain tissue ([1]; intramuscularly, 60 min): 8.2 ± 2.3 nmol/g | salicylic acid in brain tissue ([1]; intramuscularly, 120 min): 9.4 ± 3.1 nmol/g | salicylic acid in brain tissue ([1]; intramuscularly, 240 min): 8.5 ± 2.5 nmol/g | salicylic acid in brain tissue ([1]; intramuscularly, 480 min): 8.2 ± 2.3 nmol/g | salicylic acid in brain tissue ([1]; transdermally, 30 min): 3.1 ± 1.1 nmol/g | salicylic acid in brain tissue ([1]; transdermally, 60 min): 6.3 ± 2.3 nmol/g | salicylic acid in brain tissue ([1]; transdermally, 120 min): 8.2 ± 3.5 nmol/g | salicylic acid in brain tissue ([1]; transdermally, 240 min): 9.3 ± 3.3 nmol/g | salicylic acid in brain tissue ([1]; transdermally, 480 min): 9.5 ± 4.2 nmol/g | Blood Glucose Levels at day 1 ([2]; 50 mg/kg, orally): 215.6 ± 19.5 mg/dL | Blood Glucose Levels at day 42 ([2]; 50 mg/kg, orally): 172.4 ± 21.5 mg/dL | Blood Glucose Levels at day 1 ([2]; 50 mg/kg, transdermally): 217.3 ± 19.7 mg/dL | Blood Glucose Levels at day 42 ([2]; 50 mg/kg, transdermally): 135.4 ± 19.8 mg/dL | Blood Glucose Levels at day 1 ([2]; 100 mg/kg, orally): 216.4 ± 18.5 mg/dL | Blood Glucose Levels at day 42 ([2]; 100 mg/kg, orally): 133.4 ± 23.1 mg/dL | Blood Glucose Levels at day 1 ([2]; 100 mg/kg, transdermally): 219.8 ± 20.4 mg/dL | Blood Glucose Levels at day 42 ([2]; 100 mg/kg, transdermally): 115.4 ± 16.7 mg/dL | Blood Glucose Levels at day 1 ([2]; 200 mg/kg, orally): 214.4 ± 26.5 mg/dL | Blood Glucose Levels at day 42 ([2]; 200 mg/kg, orally): 125.4 ± 26.8 mg/dL | Blood Glucose Levels at day 1 ([2]; 200 mg/kg, transdermally): 219.4 ± 23.5 mg/dL | Blood Glucose Levels at day 42 ([2]; 200 mg/kg, transdermally): 111.4 ± 23.2 mg/dL | Blood Glucose Levels at day 1 ([2]; 300 mg/kg, orally): 217.4 ± 25.5 mg/dL | Blood Glucose Levels at day 42 ([2]; 300 mg/kg, orally): 115.4 ± 18.2 mg/dL | anti-diabetic effect, times stronger than that of aspirin ([2]; oral administration): more than 5 times | Body Weight (SLAC/MRL/LPR mice; week 16): 42.6 ± 2.1 g | Hematuria (0-4) (SLAC/MRL/LPR mice; week 16): 1.70 ± 0.26 | Survival Rate (SLAC/MRL/LPR mice; week 16): 10/10 | Body Weight (SLAC/MRL/LPR mice; week 17): 44.2 ± 2.0 g | Hematuria (0-4) (SLAC/MRL/LPR mice; week 17): 1.50 ± 0.17 | Survival Rate (SLAC/MRL/LPR mice; week 17): 10/10 | Body Weight (SLAC/MRL/LPR mice; week 18): 46.6 ± 2.4 g | Hematuria (0-4) (SLAC/MRL/LPR mice; week 18): 1.30 ± 0.15 | Survival Rate (SLAC/MRL/LPR mice; week 18): 10/10 | Body Weight (SLAC/MRL/LPR mice; week 19): 47.9 ± 2.5 g | Hematuria (0-4) (SLAC/MRL/LPR mice; week 19): 0.80 ± 0.13 | Survival Rate (SLAC/MRL/LPR mice; week 19): 10/10 | Body Weight (SLAC/MRL/LPR mice; week 20): 46.8 ± 2.0 g | Hematuria (0-4) (SLAC/MRL/LPR mice; week 20): 0.80 ± 0.13 | Survival Rate (SLAC/MRL/LPR mice; week 20): 10/10 | Body Weight (SLAC/MRL/LPR mice; week 21): 47.2 ± 2.2 g | Hematuria (0-4) (SLAC/MRL/LPR mice; week 21): 0.80 ± 0.13 | Survival Rate (SLAC/MRL/LPR mice; week 21): 10/10 | Body Weight (SLAC/MRL/LPR mice; week 22): 47.6 ± 1.9 g | Hematuria (0-4) (SLAC/MRL/LPR mice; week 22): 0.80 ± 0.20 | Survival Rate (SLAC/MRL/LPR mice; week 22): 10/10 | Body Weight (SLAC/MRL/LPR mice; week 23): 47.1 ± 2.3 g | Hematuria (0-4) (SLAC/MRL/LPR mice; week 23): 0.80 ± 0.20 | Survival Rate (SLAC/MRL/LPR mice; week 23): 10/10 | Body Weight (SLAC/MRL/LPR mice; week 24): 46.8 ± 2.1 g | Hematuria (0-4) (SLAC/MRL/LPR mice; week 24): 0.80 ± 0.20 | Survival Rate (SLAC/MRL/LPR mice; week 24): 10/10 | Body Weight (SLAC/MRL/LPR mice; week 25): 47.2 ± 2.0 g | Hematuria (0-4) (SLAC/MRL/LPR mice; week 25): 0.70 ± 0.15 | Survival Rate (SLAC/MRL/LPR mice; week 25): 10/10 | Body Weight (SLAC/MRL/LPR mice; week 26): 46.9 ± 2.6 g | Hematuria (0-4) (SLAC/MRL/LPR mice; week 26): 0.70 ± 0.15 | Survival Rate (SLAC/MRL/LPR mice; week 26): 10/10 | Body Weight (SLAC/MRL/LPR mice; week 27): 47.3 ± 2.0 g | Hematuria (0-4) (SLAC/MRL/LPR mice; week 27): 0.60 ± 0.22 | Survival Rate (SLAC/MRL/LPR mice; week 27): 10/10 | Body Weight (SLAC/MRL/LPR mice; week 28): 47.6 ± 2.4 g | Hematuria (0-4) (SLAC/MRL/LPR mice; week 28): 0.70 ± 0.15 | Survival Rate (SLAC/MRL/LPR mice; week 28): 10/10 | Body Weight (SLAC/MRL/LPR mice; week 29): 47.2 ± 2.5 g | Hematuria (0-4) (SLAC/MRL/LPR mice; week 29): 0.70 ± 0.15 | Survival Rate (SLAC/MRL/LPR mice; week 29): 10/10 | Body Weight (SLAC/MRL/LPR mice; week 30): 46.4 ± 2.1 g | Hematuria (0-4) (SLAC/MRL/LPR mice; week 30): 0.60 ± 0.22 | Survival Rate (SLAC/MRL/LPR mice; week 30): 10/10 | Body Weight (SLAC/MRL/LPR mice; week 31): 47.1 ± 2.2 g | Hematuria (0-4) (SLAC/MRL/LPR mice; week 31): 0.80 ± 0.20 | Survival Rate (SLAC/MRL/LPR mice; week 31): 10/10 | Body Weight (SLAC/MRL/LPR mice; week 32): 46.6 ± 2.4 g | Hematuria (0-4) (SLAC/MRL/LPR mice; week 32): 0.70 ± 0.15 | Survival Rate (SLAC/MRL/LPR mice; week 32): 10/10 | Body Weight (SLAC/MRL/LPR mice; week 33): 47.3 ± 2.1 g | Hematuria (0-4) (SLAC/MRL/LPR mice; week 33): 0.50 ± 0.17 | Survival Rate (SLAC/MRL/LPR mice; week 33): 10/10 | Body Weight (SLAC/MRL/LPR mice; week 34): 47.6 ± 2.0 g | Hematuria (0-4) (SLAC/MRL/LPR mice; week 34): 0.70 ± 0.15 | Survival Rate (SLAC/MRL/LPR mice; week 34): 10/10 | Body Weight (SLAC/MRL/LPR mice; week 35): 47.2 ± 2.0 g | Hematuria (0-4) (SLAC/MRL/LPR mice; week 35): 0.70 ± 0.15 | Survival Rate (SLAC/MRL/LPR mice; week 35): 10/10 | Body Weight (SLAC/MRL/LPR mice; week 36): 46.9 ± 2.1 g | Hematuria (0-4) (SLAC/MRL/LPR mice; week 36): 0.50 ± 0.17 | Survival Rate (SLAC/MRL/LPR mice; week 36): 10/10 | Body Weight (SLAC/MRL/LPR mice; week 37): 47.4 ± 2.7 g | Hematuria (0-4) (SLAC/MRL/LPR mice; week 37): 0.70 ± 0.15 | Survival Rate (SLAC/MRL/LPR mice; week 37): 10/10 | Body Weight (SLAC/MRL/LPR mice; week 38): 46.9 ± 2.3 g | Hematuria (0-4) (SLAC/MRL/LPR mice; week 38): 0.60 ± 0.22 | Survival Rate (SLAC/MRL/LPR mice; week 38): 10/10 | Body Weight (SLAC/MRL/LPR mice; week 39): 47.2 ± 2.0 g | Hematuria (0-4) (SLAC/MRL/LPR mice; week 39): 0.50 ± 0.17 | Survival Rate (SLAC/MRL/LPR mice; week 39): 10/10 | Body Weight (SLAC/MRL/LPR mice; week 40): 47.6 ± 2.3 g | Hematuria (0-4) (SLAC/MRL/LPR mice; week 40): 0.70 ± 0.15 | Survival Rate (SLAC/MRL/LPR mice; week 40): 10/10 | Body Weight (SLAC/MRL/LPR mice; week 41): 47.7 ± 2.2 g | Hematuria (0-4) (SLAC/MRL/LPR mice; week 41): 0.60 ± 0.22 | Survival Rate (SLAC/MRL/LPR mice; week 41): 10/10 | Body Weight (SLAC/MRL/LPR mice; week 42): 46.9 ± 2.0 g | Hematuria (0-4) (SLAC/MRL/LPR mice; week 42): 0.70 ± 0.15 | Survival Rate (SLAC/MRL/LPR mice; week 42): 10/10 | Body Weight (SLAC/MRL/LPR mice; week 43): 47.5 ± 2.8 g | Hematuria (0-4) (SLAC/MRL/LPR mice; week 43): 0.60 ± 0.22 | Survival Rate (SLAC/MRL/LPR mice; week 43): 10/10 | Body Weight (SLAC/MRL/LPR mice; week 44): 47.6 ± 2.0 g | Hematuria (0-4) (SLAC/MRL/LPR mice; week 44): 0.70 ± 0.15 | Survival Rate (SLAC/MRL/LPR mice; week 44): 10/10 | Body Weight (SLAC/MRL/LPR mice; week 45): 47.9 ± 2.5 g | Hematuria (0-4) (SLAC/MRL/LPR mice; week 45): 0.50 ± 0.17 | Survival Rate (SLAC/MRL/LPR mice; week 45): 10/10 | Body Weight (SLAC/MRL/LPR mice; week 46): 47.6 ± 2.4 g | Hematuria (0-4) (SLAC/MRL/LPR mice; week 46): 0.70 ± 0.15 | Survival Rate (SLAC/MRL/LPR mice; week 46): 10/10 | Body Weight (SLAC/MRL/LPR mice; week 47): 47.3 ± 2.8 g | Hematuria (0-4) (SLAC/MRL/LPR mice; week 47): 0.60 ± 0.22 | Survival Rate (SLAC/MRL/LPR mice; week 47): 10/10 | Body Weight (SLAC/MRL/LPR mice; week 48): 46.6 ± 2.8 g | Hematuria (0-4) (SLAC/MRL/LPR mice; week 48): 0.50 ± 0.17 | Survival Rate (SLAC/MRL/LPR mice; week 48): 10/10 | Body Weight (SLAC/MRL/LPR mice; week 49): 46.9 ± 2.1 g | Hematuria (0-4) (SLAC/MRL/LPR mice; week 49): 0.60 ± 0.22 | Survival Rate (SLAC/MRL/LPR mice; week 49): 10/10 | Body Weight (SLAC/MRL/LPR mice; week 50): 47.1 ± 2.7 g | Hematuria (0-4) (SLAC/MRL/LPR mice; week 50): 0.50 ± 0.17 | Survival Rate (SLAC/MRL/LPR mice; week 50): 10/10
